This is an account of results in article PMC3292429 (Channels, 2009).

The subject of assay [1] is IK1 channel. The note with it: cited from earlier work; for mechanism of IK1 current increase: result in words.
The test system of assay [2] is BK channel (large conductance Ca^2+-activated K channel, KCa1.1) in parotid acinar cells. The assay can be described thus: Whole-cell patch clamp: IK1-induced inhibition of BK current. Type of assay: cell-based, mouse.
Assay [3] deals with IK1 (intermediate conductance Ca^2+-activated K channel, KCa3.1). The assay can be described thus: Whole-cell patch clamp: IK1 current. Type of assay: cell-based, mouse. The conditions noted are these: 10 μM DCEBIO, +50 mV, 80 nM free Ca^2+; result in words. On the technique in general: In patch-clamp work, channel activity is measured electrically.
The target of assay [4] is BK channel (Mus musculus, UniProt Q08460). The note with it: result in words; cited from earlier work.
Sequence of BK channel (Mus musculus, UniProt Q08460) (Q08460 whole entry): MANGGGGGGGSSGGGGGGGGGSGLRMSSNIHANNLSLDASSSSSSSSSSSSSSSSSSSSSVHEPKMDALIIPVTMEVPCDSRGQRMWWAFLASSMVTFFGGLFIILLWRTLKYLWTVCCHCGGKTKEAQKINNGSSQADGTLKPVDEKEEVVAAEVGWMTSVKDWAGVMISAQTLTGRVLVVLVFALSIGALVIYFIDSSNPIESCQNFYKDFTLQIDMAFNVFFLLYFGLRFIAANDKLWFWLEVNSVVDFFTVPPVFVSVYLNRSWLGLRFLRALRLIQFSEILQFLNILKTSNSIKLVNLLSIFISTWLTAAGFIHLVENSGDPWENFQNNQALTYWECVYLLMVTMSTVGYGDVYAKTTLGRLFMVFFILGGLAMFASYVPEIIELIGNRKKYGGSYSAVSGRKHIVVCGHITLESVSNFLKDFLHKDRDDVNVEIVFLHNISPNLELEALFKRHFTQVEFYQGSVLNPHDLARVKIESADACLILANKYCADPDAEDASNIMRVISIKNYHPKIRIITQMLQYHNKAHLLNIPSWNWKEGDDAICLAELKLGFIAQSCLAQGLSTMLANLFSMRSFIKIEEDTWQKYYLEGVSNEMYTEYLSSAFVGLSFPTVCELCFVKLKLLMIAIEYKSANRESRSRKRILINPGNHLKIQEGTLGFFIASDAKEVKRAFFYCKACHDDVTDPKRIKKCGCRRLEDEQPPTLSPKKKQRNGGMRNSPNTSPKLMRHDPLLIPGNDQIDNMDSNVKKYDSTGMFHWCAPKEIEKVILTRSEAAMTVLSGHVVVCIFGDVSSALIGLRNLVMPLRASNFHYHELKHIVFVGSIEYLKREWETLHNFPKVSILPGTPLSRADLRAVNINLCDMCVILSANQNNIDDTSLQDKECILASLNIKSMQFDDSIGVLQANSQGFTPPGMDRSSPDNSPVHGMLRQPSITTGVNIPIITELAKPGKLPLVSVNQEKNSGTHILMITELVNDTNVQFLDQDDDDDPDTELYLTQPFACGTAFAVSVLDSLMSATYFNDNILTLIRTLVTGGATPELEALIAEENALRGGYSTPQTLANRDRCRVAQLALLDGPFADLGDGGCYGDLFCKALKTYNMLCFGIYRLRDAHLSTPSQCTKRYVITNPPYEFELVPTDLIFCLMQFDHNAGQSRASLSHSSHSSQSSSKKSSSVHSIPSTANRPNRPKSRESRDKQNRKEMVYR
For assay [5], the system named is BK channel. The conditions noted are these: result in words, cited from earlier work.
For assay [6], the system named is IK1 (intermediate conductance Ca^2+-activated K channel, KCa3.1). The conditions noted are these: result in words; cited from earlier work.
Where [7] appears, read: stated without own data or reference.

Entries after “also recorded” stand apart in the source; their conditions may differ.

`CCn1c(=O)[nH]c2ccccc21` [1-EBIO, 1-ethyl-2-benzimidazolinone]: in assay [1] (channels activated by 1-EBIO), the “share of closed events accounted for by the two closed times together” value was 97%, the “share of events with closed time 5 msec” value was 31% and the “share of events with closed time about 1.6 msec” value was 66%. Also, in assay [1], the “mechanism of IK1 current increase” value is “increase IK1 current by increasing the channel open probability”.
In the case of `CCn1c(=O)[nH]c2cc(Cl)c(Cl)cc21` [DCEBIO, 5,6-Dichloro-1-ethyl-1,3-dihydro-2H-benzimidazol-2-one], the “reduction of BK current” value in assay [2] (2 μM DCEBIO, pooled from 5 cells, voltage-independent (Fig. 5A)) is recorded as 50%. Further, the “recovery of BK current after washout of DCEBIO” value in assay [2] (10 μM DCEBIO, +50 mV, 80 nM free Ca^2+ in pipette, single example (Fig. 1)) was 96 % of control. Further, the “mean recovery of BK current after washout of DCEBIO” value in assay [2] (10 μM DCEBIO, +50 mV, mean ± SEM, 9 experiments) was 94 ± 3%. The “effect on time-dependent BK current” value in assay [2] (10 μM DCEBIO, +50 mV, reversible, result in words) is listed as “time-dependent BK current was reduced when IK1 channels were activated”. The “inhibition of BK channel current by IK1 activation” value in assay [2] (10 μM DCEBIO, +50 mV, single example (Fig. 2)) was 60%. Also, the “reduction in BK current by IK1 activation, remaining cells” value in assay [2] (10 μM DCEBIO, four of 19 cells, omitted from analysis, result in words) was “only modest reductions”. Further, the “voltage dependence of IK1-induced BK inhibition” value in assay [2] (10 μM DCEBIO, range of test voltages, result in words) is “very little voltage dependence; also recorded: relatively little and no consistent voltage dependence”. Further, in assay [2] (DCEBIO (10 μM), +50 mV, mean ± SEM, N = 5), the “mean block of BK current by IK1 activation” value was found to be 66 ± 6%. Moreover, the “activation of IK1 current” value in assay [3] is “activated the time and voltage independent IK1 currents; also recorded: triggered the expected time- and voltage-independent current through these channels”. Also, in assay [1], the “mechanism of IK1 current increase” value is recorded as “increase IK1 current by increasing the channel open probability”. Moreover, the “effect on BK channels in cells from IK1 gene-ablated mice” value in assay [4] is “no effects on BK channels”.
For `CC[N+](CC)(CC)CC` [TEA], in assay [5] (setting [7]), the “effect of internal TEA on BK single channel current level” value was “reduction in the BK single channel current level (as does TEA)” and the “time dependence of open channel block by internal TEA” value was “no apparent time dependence”.
As to `Clc1ccccc1C(c1ccccc1)(c1ccccc1)n1cccn1` [TRAM-34], in assay [2] (1 or 10 μM TRAM-34 in presence of DCEBIO, mean ± SEM, N = 5), the “mean BK level after IK1 block by TRAM-34” value is 88 ± 3 % of control. In addition, the IK1 channel inhibition result in assay [6] is “IK1 inhibitor”.
As to `C[N+](C)(C)CCCCCCCCCC[N+](C)(C)C` [decamethonium], the “competition of native β subunit inactivation with cytosolic blockers” value in assay [5] is “does not”.
On to `CC(C)(O)[C@H]1O[C@H]2CC[C@@]3(C)[C@@](O)(CC[C@H]4Cc5c([nH]c6ccccc56)[C@@]43C)C2=CC1=O` [paxilline], for which the “BK channel block by paxilline” value in assay [5] is listed as “specific BK channel blocker”.
